Data taken from article PMC11671793, “Design, Synthesis, and Evaluation of Novel (−)‐cis‐N‐Normetazocine Derivatives: In Vitro and Molecular Modeling Insights” (Chemical Biology & Drug Design, 2024).
Read-outs that look alike come from different tables or passages of the source.

Key:
KOR = biological target: KOR; parameters: method as in Pasquinucci et al. [2010]; conditions: Figure 1; ref Pasquinucci et al. [2010]; cited from earlier work
DOR = biological target: DOR; parameters: method as in Pasquinucci et al. [2010]; conditions: Figure 1; ref Pasquinucci et al. [2010]; cited from earlier work
MOR = biological target: MOR; parameters: method as in Pasquinucci et al. [2010]; conditions: Figure 1; ref Pasquinucci et al. [2010]; cited from earlier work
[1] = biological target: T1, KOR (kappa opioid receptor) (Cavia porcellus, UniProt P41144); experiment: KOR radioligand binding assay with [3H]-U69,593; parameters: species or system guinea pig
T1 construct: from tissue; host or cells: guinea pig brain membranes
T1 sequence (P41144 whole entry): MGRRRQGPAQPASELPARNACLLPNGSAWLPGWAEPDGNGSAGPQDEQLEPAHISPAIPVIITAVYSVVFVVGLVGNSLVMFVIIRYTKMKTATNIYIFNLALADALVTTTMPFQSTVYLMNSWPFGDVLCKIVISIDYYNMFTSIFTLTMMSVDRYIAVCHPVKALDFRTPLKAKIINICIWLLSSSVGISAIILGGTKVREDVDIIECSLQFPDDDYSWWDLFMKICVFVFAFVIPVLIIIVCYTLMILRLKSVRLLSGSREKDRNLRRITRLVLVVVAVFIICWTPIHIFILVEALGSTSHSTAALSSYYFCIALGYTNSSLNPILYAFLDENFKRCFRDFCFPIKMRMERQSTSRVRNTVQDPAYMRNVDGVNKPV

MOR (mu opioid receptor) [2] = biological target: T2, MOR (mu opioid receptor) (Rattus norvegicus, UniProt P33535); experiment: MOR radioligand binding assay with [3H]-DAMGO; conditions: for K i DOR/K i MOR / K i KOR/K i MOR: selectivity ratio
T2 construct: from tissue; host or cells: rat brain membranes
T2 sequence (P33535 whole entry): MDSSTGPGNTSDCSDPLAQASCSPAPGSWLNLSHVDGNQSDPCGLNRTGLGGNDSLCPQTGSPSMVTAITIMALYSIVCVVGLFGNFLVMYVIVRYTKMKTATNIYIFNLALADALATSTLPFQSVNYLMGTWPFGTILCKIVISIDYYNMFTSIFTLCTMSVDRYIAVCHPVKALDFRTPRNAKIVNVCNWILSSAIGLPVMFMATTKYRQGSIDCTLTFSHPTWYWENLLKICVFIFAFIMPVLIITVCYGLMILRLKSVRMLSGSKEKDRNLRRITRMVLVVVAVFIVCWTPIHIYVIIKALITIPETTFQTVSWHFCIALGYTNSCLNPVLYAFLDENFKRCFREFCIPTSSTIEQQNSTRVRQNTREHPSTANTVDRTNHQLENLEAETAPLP

[3] = biological target: T3, DOR (delta opioid receptor) (Rattus norvegicus, UniProt P33533); experiment: DOR radioligand binding assay with [3H]-Delthorphin
T3 sequence (P33533 whole entry): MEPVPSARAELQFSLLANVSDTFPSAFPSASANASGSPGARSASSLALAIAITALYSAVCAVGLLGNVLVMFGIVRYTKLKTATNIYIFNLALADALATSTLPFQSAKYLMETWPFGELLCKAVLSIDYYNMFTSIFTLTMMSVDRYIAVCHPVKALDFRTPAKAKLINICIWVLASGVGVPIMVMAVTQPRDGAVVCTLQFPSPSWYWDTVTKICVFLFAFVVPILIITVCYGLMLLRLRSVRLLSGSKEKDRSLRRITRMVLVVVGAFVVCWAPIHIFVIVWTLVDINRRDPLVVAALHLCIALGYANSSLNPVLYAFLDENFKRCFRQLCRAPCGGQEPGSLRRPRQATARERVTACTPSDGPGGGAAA

[4] = biological target: T3, DOR (delta opioid receptor); conditions: cited from earlier work
[5] = biological target: T1, KOR (kappa opioid receptor); conditions: cited from earlier work
MOR (mu opioid receptor) [6] = biological target: T2, MOR (mu opioid receptor); conditions: cited from earlier work
[7] = K i (nM) ± SD KOR, [3H]-U69,593, mean ± SD of at least two experiments in duplicate
[8] = KOR Expected K i (nM), experimental Ki as repeated in Table 2
[9] = read-out: DOR Expected K i, experimental Ki as repeated in Table 2, previously synthesized compounds, ref Pasquinucci et al. ([2017]), Costanzo et al. ([2023])
[10] = read-out: KOR Expected K i, experimental Ki as repeated in Table 2, previously synthesized compounds, ref Pasquinucci et al. ([2017]), Costanzo et al. ([2023])
[11] = read-out: MOR Expected K i, experimental Ki as repeated in Table 2, previously synthesized compounds, ref Pasquinucci et al. ([2017]), Costanzo et al. ([2023])

Structure (SMILES) | Ki [1, 7] | Ki (MOR (mu opioid receptor) [2]) | K i DOR/K i MOR (MOR (mu opioid receptor) [2]) | K i KOR/K i MOR (MOR (mu opioid receptor) [2]) | Ki [3] | other results
CC1C2Cc3ccc(O)cc3C1(C)CCN2CCC(=O)Nc1ccccc1 (stereo not drawn) [LP1] | – | – | – | – | – | Ki (KOR): 110 nM; Ki (DOR): 29.1 nM; Ki (MOR): 0.83 nM
COC(=O)CCCN1CC[C@@]2(C)c3cc(O)ccc3C[C@@H]1[C@@H]2C [Compound 4, Methyl 4‐((2R,6R,11R)‐8‐hydroxy‐6,11‐dimethyl‐1,4,5,6‐tetrahydro‐2,6‐ methanobenzo[d]azocin‐3(2H)‐yl)butanoate] | 70.5 nM | 67.8 ± 7 nM | 3.21 | 1.04 | 218 ± 20 nM | Ki [1, 8]: 70.5 ± 0.76 nM
COC(=O)CCN1CC[C@@]2(C)c3cc(O)ccc3C[C@@H]1[C@@H]2C [Compound 3, Methyl 3‐[(2R,6R,11R)‐8‐hydroxy‐6,11‐dimethyl‐1,4,5, 6‐tetrahydro‐2,6‐methanobenzo[d]azocin‐3(2H]‐yl)propanoate] | 60.7 ± 8 nM | 19 ± 3 nM | 26.98 | 3.19 | 513 ± 30 nM | Ki [1, 8]: 60.7 ± 0.7 nM
CC1C2Cc3ccc(O)cc3C1(C)CCN2CCC(C(=O)O)c1ccccc1 (stereo not drawn) [Compound 2] | – | – | 23.30 | – | – | Ki [4, 9]: 275 ± 11 nM; Ki ([4]; read-out: K i (nM) ± SD DOR, footnote b, ref Pasquinucci et al. ([2017])): 275 ± 11 nM; Ki ([5]; read-out: K i (nM) ± SD KOR, footnote b, ref Pasquinucci et al. ([2017])): 3220 ± 60 nM; Ki [5, 10]: 3220 ± 60 nM; Ki (MOR (mu opioid receptor) [6]; read-out: K i (nM) ± SD MOR, footnote b, ref Pasquinucci et al. ([2017])): 11.8 ± 2 nM; Ki (MOR (mu opioid receptor) [6]; [11]): 11.8 ± 2 nM
C[C@H]1[C@H]2Cc3ccc(O)cc3[C@]1(C)CCN2CCC(=O)O [Compound 5, 3‐((2R,6R,11R)‐8‐Hydroxy‐6,11‐dimethyl‐1,4,5,6‐tetrahydro‐2,6‐methanobenzo[d]azocin‐3(2H)‐yl)propanoic acid] | > 5000 nM | 383 ± 21 nM | 2.88 | – | 1100 ± 54 nM | –
C[C@H]1[C@H]2Cc3ccc(O)cc3[C@]1(C)CCN2CCCC(=O)O [Compound 6, 4‐((2R,6R,11R)‐8‐Hydroxy‐6,11‐dimethyl‐1,4,5,6‐tetrahydro‐2,6‐methanobenzo[d]azocin‐3(2H)‐yl)butanoic acid] | > 5000 nM | 992 ± 55 nM | 1.21 | – | 1200 ± 64 nM | –
C[C@H]1[C@H]2Cc3ccc(O)cc3[C@]1(C)CCN2CCC(=O)NO [Compound 7, N‐Hydroxy‐3‐((2R,6R,11R)‐8‐hydroxy‐6,11‐dimethyl‐1,4,5,6‐tetrahydro‐2,6‐methanobenzo[d]azocin‐3(2H)‐yl)propanamide] | > 5000 nM | 30.8 ± 2 nM | 10.89 | – | 335 ± 19 nM | –
CCOC(=O)C(CCN1CCC2(C)c3cc(O)ccc3CC1C2C)c1ccccc1 (stereo not drawn) [Compound 1] | – | – | 40.70 | 12.00 | – | Ki ([4]; experimental Ki as repeated in Table 2, previously synthesized compounds, ref Pasquinucci et al. ([2017]), Costanzo et al. ([2023]), read-out: DOR Expected K i): 440 ± 22 nM; Ki ([4]; footnote b, ref Pasquinucci et al. ([2017]), read-out: K i (nM) ± SD DOR): 440 ± 22 nM; Ki ([5]; experimental Ki as repeated in Table 2, previously synthesized compounds, ref Pasquinucci et al. ([2017]), Costanzo et al. ([2023]), read-out: KOR Expected K i): 130 ± 15 nM; Ki ([5]; footnote b, ref Pasquinucci et al. ([2017]), read-out: K i (nM) ± SD KOR): 130 ± 15 nM; Ki (MOR (mu opioid receptor) [6]; experimental Ki as repeated in Table 2, previously synthesized compounds, ref Pasquinucci et al. ([2017]), Costanzo et al. ([2023]), read-out: MOR Expected K i): 10.8 ± 2 nM; Ki (MOR (mu opioid receptor) [6]; footnote b, ref Pasquinucci et al. ([2017]), read-out: K i (nM) ± SD MOR): 10.8 ± 2 nM
COC(CN1CCC2(C)c3cc(O)ccc3CC1C2C)c1ccccc1 (stereo not drawn) [LP2] | – | – | 6.11 | 14.10 | – | Ki [4, 9]: 6.61 ± 0.6 nM; Ki ([4]; read-out: K i (nM) ± SD DOR, footnote c, ref Costanzo et al. ([2023])): 6.61 ± 0.6 nM; Ki ([5]; read-out: K i (nM) ± SD KOR, footnote c, ref Costanzo et al. ([2023])): 15.2 ± 0.8 nM; Ki [5, 10]: 15.2 ± 0.8 nM; Ki (MOR (mu opioid receptor) [6]; read-out: K i (nM) ± SD MOR, footnote c, ref Costanzo et al. ([2023])): 1.08 ± 0.1 nM; Ki (MOR (mu opioid receptor) [6]; [11]): 1.08 ± 0.1 nM
C[C@H]1[C@H]2Cc3ccc(O)cc3[C@]1(C)CCN2CCCC(=O)NO [Compound 8, N‐Hydroxy‐4‐((2R,6R,11R)‐8‐hydroxy‐6,11‐dimethyl‐1,4,5,6‐tetrahydro‐2,6‐methanobenzo[d]azocin‐3(2H)‐yl)butanamide] | > 5000 nM | 42.2 ± 3 nM | 30.83 | – | 1300 ± 80 nM | –
